Experimental data: ChEMBL document CHEMBL1201862, “PubChem BioAssay data set” (2004)
Calls of active or inactive are those of the source.

How the values were obtained:
[1] = target: Dual specificity protein phosphatase 3 (Homo sapiens, UniProt P51452); assay: VHR phosphatase inhibition, dose response, selectivity assay for STEP inhibitor project, biochemical (AID 602374); type: functional; details: read-out: IC50_Mean
[2] = target: Tyrosine-protein phosphatase non-receptor type 5 (Homo sapiens, UniProt P54829); assay: PTPN5 enzyme inhibition – biochemical, fluorescence intensity, uHTS hits, confirmation (AID 602372); type: functional; details: read-out: IC50_Mean
Chain of Tyrosine-protein phosphatase non-receptor type 5 (P54829 whole entry): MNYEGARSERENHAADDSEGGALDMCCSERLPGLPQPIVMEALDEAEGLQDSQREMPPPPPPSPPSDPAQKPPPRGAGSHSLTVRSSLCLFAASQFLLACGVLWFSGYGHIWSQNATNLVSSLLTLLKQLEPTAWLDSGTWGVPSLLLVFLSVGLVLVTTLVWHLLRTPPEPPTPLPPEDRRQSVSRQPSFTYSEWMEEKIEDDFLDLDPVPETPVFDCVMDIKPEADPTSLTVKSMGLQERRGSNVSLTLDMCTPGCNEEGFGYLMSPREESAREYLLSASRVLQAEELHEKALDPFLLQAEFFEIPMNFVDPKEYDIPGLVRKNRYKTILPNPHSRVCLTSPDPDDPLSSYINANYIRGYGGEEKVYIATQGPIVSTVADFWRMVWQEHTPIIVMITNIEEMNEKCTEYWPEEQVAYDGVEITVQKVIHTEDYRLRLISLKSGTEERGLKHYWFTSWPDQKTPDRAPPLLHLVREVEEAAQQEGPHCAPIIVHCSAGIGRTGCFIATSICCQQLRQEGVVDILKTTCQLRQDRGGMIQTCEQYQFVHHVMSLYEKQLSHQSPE

[3] = target: Tyrosine-protein phosphatase non-receptor type 11 (Homo sapiens, UniProt Q06124); assay: PTPN11 enzyme inhibitors – biochemical, selectivity assay for STEP inhibitor project, dose response (AID 602367); type: functional; details: read-out: IC50_Mean
Chain of Tyrosine-protein phosphatase non-receptor type 11 (Q06124 whole entry): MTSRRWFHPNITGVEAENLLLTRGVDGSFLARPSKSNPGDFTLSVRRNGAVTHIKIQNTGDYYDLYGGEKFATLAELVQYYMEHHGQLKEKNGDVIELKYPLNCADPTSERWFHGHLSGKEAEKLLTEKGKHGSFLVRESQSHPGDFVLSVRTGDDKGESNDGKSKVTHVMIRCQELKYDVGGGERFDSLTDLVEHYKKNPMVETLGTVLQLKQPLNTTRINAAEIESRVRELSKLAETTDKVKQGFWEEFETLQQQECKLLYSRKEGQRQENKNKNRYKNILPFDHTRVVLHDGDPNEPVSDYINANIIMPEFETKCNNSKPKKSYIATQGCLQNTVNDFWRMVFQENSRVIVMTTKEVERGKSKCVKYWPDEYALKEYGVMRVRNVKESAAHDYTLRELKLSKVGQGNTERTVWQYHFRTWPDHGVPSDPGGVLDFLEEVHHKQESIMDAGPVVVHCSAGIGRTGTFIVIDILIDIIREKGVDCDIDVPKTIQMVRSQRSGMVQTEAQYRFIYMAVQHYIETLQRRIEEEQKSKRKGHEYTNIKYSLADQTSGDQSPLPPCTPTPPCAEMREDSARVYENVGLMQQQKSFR

BJ [4] = assay: cells; type: functional, cell-based; details: Homo sapiens
Vero = assay: cells; type: functional; details: Chlorocebus sabaeus
BJ [5] = assay: growth inhibition of engineered Ras-driven BJ cells – cell-based, alamar blue fluorescence, cherrypicked samples, dose response (AID 2631); type: functional; details: Homo sapiens;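 further: confirmatory dose-response assay in RAS-dependent BJ fibroblasts engineered with TERT, LT and ST, with cytotoxicity read by fluorescence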
[6] = DRD fibroblast viability loss – cell-based, non-viral oncogenic, luminescence, dose response (AID 1934); type: functional; details: Homo sapiens
BJ [7] = assay: BJ-TERT fibroblast viability loss – cell-based, RAS-independent, luminescence, dose response (AID 1933); type: functional; details: Homo sapiens
BJ [8] = assay: BJ-TERT-LT-ST fibroblast viability loss – cell-based, RAS-independent, luminescence, dose response (AID 1935); type: functional; details: Homo sapiens;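 further: BJ fibroblasts immortalized with TERT plus LT and ST oncogenes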
Phospholipase A2 = Phospholipase A2 (Homo sapiens, UniProt P04054); type: functional;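 further: confirmatory dose-response counterscreen on phospholipase A2, testing hits that came from an ultra-high-throughput screen for ATG4B inhibitors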
Chain of Phospholipase A2 (P04054 whole entry): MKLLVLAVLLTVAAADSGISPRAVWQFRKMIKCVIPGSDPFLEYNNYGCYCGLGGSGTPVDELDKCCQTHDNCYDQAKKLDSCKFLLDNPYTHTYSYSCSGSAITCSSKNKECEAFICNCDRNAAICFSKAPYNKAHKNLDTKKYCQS

[9] = Luminescence Cell-Based Dose Confirmation HTS to Identify Inhibitors of Platelet Dense Granule Release. [Related pubchem assays: 1663 (Primary HTS), 1678 (Summary of Project)]; type: functional
[10] = target: Luciferin 4-monooxygenase (Photinus pyralis, UniProt P08659); assay: inhibition of purified Photinus pyralis luciferase – biochemical, luminescence, dose response (AID 1891)
Chain of Luciferin 4-monooxygenase (P08659 whole entry): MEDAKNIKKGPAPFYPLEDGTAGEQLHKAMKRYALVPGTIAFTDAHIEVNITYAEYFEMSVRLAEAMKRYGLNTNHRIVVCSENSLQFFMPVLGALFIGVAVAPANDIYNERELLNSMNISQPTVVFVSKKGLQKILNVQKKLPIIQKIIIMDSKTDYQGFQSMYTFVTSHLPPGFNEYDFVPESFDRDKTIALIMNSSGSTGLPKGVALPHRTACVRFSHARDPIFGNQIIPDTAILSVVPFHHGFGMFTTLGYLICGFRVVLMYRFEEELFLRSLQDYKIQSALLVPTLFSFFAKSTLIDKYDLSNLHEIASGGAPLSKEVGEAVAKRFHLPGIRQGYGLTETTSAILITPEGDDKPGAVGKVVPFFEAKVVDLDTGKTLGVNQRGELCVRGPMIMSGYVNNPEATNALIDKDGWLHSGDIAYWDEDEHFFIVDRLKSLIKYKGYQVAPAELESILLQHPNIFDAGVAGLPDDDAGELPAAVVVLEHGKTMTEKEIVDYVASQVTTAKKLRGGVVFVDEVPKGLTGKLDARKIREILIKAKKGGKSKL

Cysteine protease ATG4B = target: T1, Cysteine protease ATG4B (Homo sapiens, UniProt Q9Y4P1); type: functional;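 further: Fluorescence-based dose-response confirmation assay measuring inhibition of ATG4B activity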
T1 sequence (Q9Y4P1 whole entry): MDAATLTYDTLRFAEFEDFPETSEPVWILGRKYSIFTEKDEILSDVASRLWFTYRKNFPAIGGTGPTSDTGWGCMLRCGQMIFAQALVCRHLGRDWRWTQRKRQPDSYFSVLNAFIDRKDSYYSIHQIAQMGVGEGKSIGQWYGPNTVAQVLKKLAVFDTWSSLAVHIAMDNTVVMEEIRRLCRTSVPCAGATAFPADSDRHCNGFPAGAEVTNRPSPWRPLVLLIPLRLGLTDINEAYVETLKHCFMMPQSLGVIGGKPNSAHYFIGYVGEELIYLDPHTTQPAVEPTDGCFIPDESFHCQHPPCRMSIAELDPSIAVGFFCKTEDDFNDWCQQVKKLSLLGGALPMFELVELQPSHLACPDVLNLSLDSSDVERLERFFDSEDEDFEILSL

[11] = target: Nuclear receptor subfamily 5 group A member 2 (Homo sapiens, UniProt O00482); type: functional, cell-based;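 further: HEK293T cells transfected with LRH-1 and a StAR promoter luciferase reporter; potency for inhibitors that lower LRH-1 driven reporter light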
Chain of Nuclear receptor subfamily 5 group A member 2 (O00482 whole entry): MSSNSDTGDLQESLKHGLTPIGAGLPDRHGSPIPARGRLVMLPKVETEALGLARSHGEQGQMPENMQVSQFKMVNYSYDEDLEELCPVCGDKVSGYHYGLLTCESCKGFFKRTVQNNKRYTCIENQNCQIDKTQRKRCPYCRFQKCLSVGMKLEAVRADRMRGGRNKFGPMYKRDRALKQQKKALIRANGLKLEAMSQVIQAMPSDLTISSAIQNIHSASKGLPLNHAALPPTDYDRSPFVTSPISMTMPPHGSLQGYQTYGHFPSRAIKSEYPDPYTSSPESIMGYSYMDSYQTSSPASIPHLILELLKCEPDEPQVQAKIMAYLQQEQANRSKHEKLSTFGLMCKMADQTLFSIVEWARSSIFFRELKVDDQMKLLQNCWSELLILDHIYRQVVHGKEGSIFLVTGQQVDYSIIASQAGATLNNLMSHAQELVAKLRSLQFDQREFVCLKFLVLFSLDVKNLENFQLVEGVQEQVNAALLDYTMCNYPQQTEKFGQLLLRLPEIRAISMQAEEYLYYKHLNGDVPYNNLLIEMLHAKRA

Steroidogenic factor 1 = Steroidogenic factor 1 (Homo sapiens, UniProt Q13285); assay: Counterscreen for inverse agonists of the liver receptor homolog-1 (LRH-1; NR5A2): Luminescence-based cell-based high throughput dose response assay to identify inverse agonists of the Steroidogenic Factor 1 Nuclear Receptor (SF1; NR5A1).; type: functional
Chain of Steroidogenic factor 1 (Q13285 whole entry): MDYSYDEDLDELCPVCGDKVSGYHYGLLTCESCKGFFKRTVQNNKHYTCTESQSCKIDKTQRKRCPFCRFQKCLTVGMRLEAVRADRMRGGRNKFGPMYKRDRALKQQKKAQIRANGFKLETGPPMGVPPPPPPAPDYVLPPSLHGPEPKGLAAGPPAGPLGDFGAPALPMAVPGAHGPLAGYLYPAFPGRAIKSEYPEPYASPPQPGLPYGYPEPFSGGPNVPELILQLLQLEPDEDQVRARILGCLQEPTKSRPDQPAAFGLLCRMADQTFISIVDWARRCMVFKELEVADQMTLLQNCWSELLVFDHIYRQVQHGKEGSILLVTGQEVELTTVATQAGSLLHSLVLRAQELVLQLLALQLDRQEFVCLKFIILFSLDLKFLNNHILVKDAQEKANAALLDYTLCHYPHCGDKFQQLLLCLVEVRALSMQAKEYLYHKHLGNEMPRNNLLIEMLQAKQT

[12] = nonselective StAR promoter luciferase inhibitors – cell-based, luminescence, luciferase reporter, counter-screen for LRH-1 inverse agonist project, dose response (AID 651969); type: functional
[13] = target: T2, Sentrin-specific protease 8 (Homo sapiens, UniProt Q96LD8); type: functional
T2 sequence (Q96LD8 whole entry): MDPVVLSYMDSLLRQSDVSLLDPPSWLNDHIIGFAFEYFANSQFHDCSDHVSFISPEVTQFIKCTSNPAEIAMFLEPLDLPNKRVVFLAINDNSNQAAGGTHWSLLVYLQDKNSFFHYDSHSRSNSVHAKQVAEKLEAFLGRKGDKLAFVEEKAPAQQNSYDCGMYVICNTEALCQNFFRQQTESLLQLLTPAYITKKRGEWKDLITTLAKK

Caspase-3 = target: T3, Caspase-3 (Homo sapiens, UniProt P42574); assay: Dose-response confirmation of uHTS inhibitor hits of Sentrin-Specific Protease 8 in a Caspase-3 Fluorescence assay.; type: functional
T3 sequence (P42574 whole entry): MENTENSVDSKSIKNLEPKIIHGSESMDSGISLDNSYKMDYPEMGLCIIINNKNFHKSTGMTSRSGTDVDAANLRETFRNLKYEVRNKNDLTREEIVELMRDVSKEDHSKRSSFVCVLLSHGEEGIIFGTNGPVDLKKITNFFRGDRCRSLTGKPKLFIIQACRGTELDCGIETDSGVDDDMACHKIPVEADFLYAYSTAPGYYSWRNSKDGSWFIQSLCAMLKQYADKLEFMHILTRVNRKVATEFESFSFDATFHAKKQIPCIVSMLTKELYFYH

[14] = target: T2, Sentrin-specific protease 8; type: functional; remark: listed apart in the source

Chain of Dual specificity protein phosphatase 3 (P51452 whole entry): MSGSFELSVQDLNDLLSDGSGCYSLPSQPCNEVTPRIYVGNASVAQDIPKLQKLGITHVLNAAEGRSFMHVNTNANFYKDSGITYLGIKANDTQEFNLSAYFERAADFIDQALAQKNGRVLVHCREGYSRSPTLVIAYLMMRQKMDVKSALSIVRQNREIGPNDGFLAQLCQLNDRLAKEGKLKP

In the case of COCCCN(C(S)=Nc1c(C)cc(C)cc1C)C(C)c1ccccn1 (centres undefined), the IC50 [1] is reported as 4.94 µM (active), the IC50 [2] is reported as > 80 µM (inactive) and the IC50 [3] is reported as 15.1 µM (active).
For COc1ccc(OC)c(Nc2nc(N)nc(CCl)n2)c1, the EC50 (BJ [4]) was 4.66 µM (inconclusive), the CC50 (Vero) was 7.93 µM (active) and the EC50 (BJ [5]) was 15.7 µM (active). For the same compound, the EC50 [6] was 2.16 µM (active), the EC50 (BJ [7]) was 0.258 µM (active) and the EC50 (BJ [8]) was > 150 µM (inconclusive).
In the case of Cc1cccc(OCC(=O)Nc2ccccc2-c2ccccc2)c1, the IC50 (Phospholipase A2) is reported as 11.9 µM (active), the EC50 [9] is reported as > 112 µM (not active) and the EC50 [10] is reported as 73.8 µM (active). For the same compound, the IC50 (Cysteine protease ATG4B) was 11.5 µM (active).
In the case of COC(=O)c1ccc(NC(=O)CN2CCN(c3ccc(Cl)cc3)CC2)cc1, the IC50 [11] is reported as 35.9 µM (inactive), the IC50 (Steroidogenic factor 1) is reported as 30.7 µM (inactive) and the IC50 [12] is reported as 35.9 µM (inactive).
For O=C1CC(N2CCOCC2)=NN1c1ccc([N+](=O)[O-])cc1, the IC50 [13] was 24.6 µM (active), the IC50 (Caspase-3) was 100 µM (inactive) and the IC50 [14] was 11.7 µM (active).
